Compound `COc1ccccc1SCC1SCCN1C(=S)CC(C)=O` (stereo not drawn) registered a melting point of 62 to 64 °C. Next, `CCCCC(=O)c1c(CBr)nc2cc(OC)c(OC)cc2c1-c1ccc(OC)c(OC)c1`: 150 to 151 °C. Next, `NCC1CN(c2c(F)cc3c(=O)c(C(=O)O)cn(C4CC4)c3c2F)C1`: 190 to 195 °C; `O=c1[nH]c2cc([N+](=O)[O-])c(-n3ccc(C=NO)c3)cc2n(C2CCCCC2)c1=O`: 234 °C.

Compound `Cc1cc(=O)n2ncn(N)c2n1` showed a melting point of 202 to 204 °C. Next, `c1ccc(C2=NN=C(N3CCOCC3)SC2)cc1`: 173 to 174 °C; `NCCNc1ccc2[nH]ncc2c1`: 150 to 165 °C; `CO/N=C/c1ccc2c(c1Cn1ccnc1)OCO2`: 102 °C.

In the case of `Cc1ccc(C=C2c3ncc(C)cc3CCC2(C)C)cc1`, the melting point came out at 153 °C. In the case of `CC#CC(C)(C)NC(=O)C(CC)Oc1cncc(Br)c1` (single isomer, unassigned; (-)), the melting point was 95 to 97 °C. `Cc1nnc(-c2ccc3occ(-c4ccc(SCc5ccccc5)cc4)c3c2)o1` returned a melting point of 158 to 159 °C. Next, `CCOC(=O)NNc1cc(C)c(-c2cccc(C#N)c2)nn1`: 189 to 190 °C; `CCOC(=O)c1c(O)c2cc(F)ccc2n(C)c1=O`: 131 °C. In the case of `CNS(=O)(=O)c1cc(C)sc1CC(=O)O`, the melting point was 109 °C.

For the compound `COc1ccc(C)cc1NC(=O)Nc1ccc(N2CCN(C(=O)Nc3c(CO)cccc3C(F)(F)F)CC2)cc1`, the melting point lay in the range of 139 to 140 °C. As for `O=c1[nH]c(=O)n(C2CC(F)C(CO)O2)cc1C(Cl)=CI` (stereo not drawn), the melting point came to 87 °C. Next, `COC(=O)Nc1ccc2ccccc2c1-c1c(P(=O)(c2ccccc2)c2ccccc2)ccc2ccccc12`: 128 °C; `CSc1nc(O)nn1-c1ccccc1`: 176 to 177 °C. For `CCOC(=O)/C=C/c1cn(-c2ccc(C(F)(F)F)cn2)nc1C(C)CC` (stereo not drawn), the melting point lay within 75 to 76 °C. Next, `Cc1ccc(S(=O)(=O)N2CCCC(S(=O)(=O)c3ccc(Cl)cc3)C2)cc1` (stereo not drawn): 186 to 187 °C; `Cc1cn2cccc(OCc3c(Cl)ccc(S(=O)(=O)N4CCC[C@H]4C(=O)N4CCN(C(=O)c5ccc(C=NN)cc5)CC4)c3Cl)c2n1`: 159 to 161 °C; `C[C@@H]1Cc2cc3c(cc2C(c2ccc([N+](=O)[O-])c(Cl)c2)=NN1C(=S)NN)OCO3`: 126 to 127 °C. With `O=P(O)(O)C(Cc1cnsn1)P(=O)(O)O`, the melting point is more than 300 °C.

Turning to `CSC(=S)N1Cc2c(c3ccccc3n2C)CC1C(=O)O` (stereo not drawn), the melting point lay within 212 to 213 °C. Consider `CCOC(=O)C=C(C)C=CC=C(C)C=Cc1c(C)c(Cl)c(C)c(Cl)c1C`, for which the melting point fell in the range of 220 to 222 °C.

The compound `CC(C)C(=O)c1nccnc1SCc1ccco1` registered a melting point of 57 to 58 °C.

Compound `Clc1cc(Cl)cc(-c2n[nH]cc2I)c1` gave a melting point of 170 °C. In turn, `Cc1ccc2c(c1)c(N1CCN(C(=O)c3ccco3)CC1)c(C#N)c(=O)n2Cc1ccccc1` registered a melting point of 146 °C. Compound `COC(=O)c1cccc(F)c1C=NC(C)(C(N)=O)C(C)C` (stereo not drawn) showed a melting point of 125 to 131 °C.

`O=C(O)Cc1cc(Cl)c2c(c1)CCC(c1ccccc1F)N2` (stereo not drawn) had a melting point of 127 to 129 °C.

`Nc1nc2c(s1)CC(CCN1CC=C(c3ccccc3)CC1)CC2` (stereo not drawn) displayed a melting point of 177 to 182 °C. Regarding `CC(F)=C1CCC2C3CC=C4CC(O)CCC4(C)C3CCC12C` (stereo not drawn), the melting point lay within 129 to 133 °C. On to `OC1CCNc2nc(Br)ccc21` (stereo not drawn), for which the melting point was in the range of 130 to 131 °C. In the case of `CCCCCCCCCCCCSCC(O)CO` (stereo not drawn) it was 53 to 54 °C. The compound `CN(C)Cc1ccc(CSCCNC(=O)NCCN(C)CCN(Cc2ccc(F)cc2)c2ccccn2)o1` had a melting point of 90 °C.

Consider `NC(=O)COCc1nnc(S)s1`, for which the melting point lay in the range of 216 to 217 °C. `CC1(C)C(=O)N(CCCl)C(=O)N1CCCl` came in with a melting point of 77 to 79 °C. As for `C[C@@H](Oc1ccc(-c2ccccc2)cc1)[C@H](O)CCc1cccnc1`, the melting point was in the range of 98 to 99.5 °C. As to `CN(C)c1ccc(C=CC(=O)c2ccc(OCCO)cc2)cc1`, the melting point lay in the range of 127 to 128 °C. Compound `Cn1c(=O)c2c(ncn2CCC(O)N2CCN(C(=O)c3ccco3)CC2)n(C)c1=O` (stereo not drawn) yielded a melting point of 161 to 163 °C.

As for `Cc1ccc(C(=O)NCCO)cc1-n1c(C)cc(OCc2ccccc2CNC(=O)Nc2cc(C(C)(C)C)nn2-c2ccc(Cl)c(O)c2)c(Cl)c1=O`, the melting point lay in the range of 196 to 197 °C. Next, `COC(=O)CCCCCc1c(OC)cc(C(C)(C)C)c(O)c1NC(=O)NNC(=O)Nc1cc(OC)cc(C(C)(C)C)c1O`: 157 to 159 °C; `O=C(O)[C@H](Oc1c(Br)cc(-c2c3ccccc3c(Br)c3sc4ccccc4c23)cc1Br)c1ccccc1`: 135 to 137 °C. As for `O=C1NC(=O)C(Sc2ccc3cc(O)ccc3c2)S1` (stereo not drawn), the melting point was in the range of 182 to 183 °C. In the case of `c1c(NC2CCCC2)nc(NC2CCCC2)nc1N1CCNCC1` it was 142 to 148 °C; in that of `COC(=O)C1CC(C(=O)OC)NC(=O)N1` (stereo not drawn), 178 to 179 °C; in that of `CC(=O)N1c2ccccc2Sc2ccccc21`, 210 to 211 °C. `COc1ccc(C(O)c2ccccc2)cc1OC1CCCC1` (stereo not drawn): the melting point is 82.5 to 83 °C. On to `CSc1nn2c(N3CCN(c4ccccc4)CC3)cc(C)nc2c1S(=O)(=O)c1ccccc1`, for which the melting point was more than 230 °C. Next, `CC(=O)c1ccc(OCc2cncnc2)cc1OC(CCC(=O)O)c1ccccc1C` (racemic): 142 to 144 °C. Regarding `CC(=O)NCC1CC1c1ccc(F)c2nn(C)cc12` (stereo not drawn), the melting point fell in the range of 147 to 148 °C. Consider `CC(=O)Nc1ccc2c3c1c(=O)c(C(=O)O)cn3C1CCCCC21` (stereo not drawn), for which the melting point lay in the range of 187 to 190 °C.

For the compound `CCc1nn(-c2cc(NC(=O)CCOC)ccc2Cl)c(=O)n1Cc1ccc(-c2ccccc2S(=O)(=O)NC(=O)OC(C)(C)C)cc1F`, the melting point is 128 to 131 °C.

`Cc1cc(-c2cc(C(=O)O)c(=O)n(Cc3ccccc3Cl)n2)ccc1F` had a melting point of 185 to 186 °C. In the case of `CCOCc1nc2c(N)nc3ccc(OCc4ccccc4)cc3c2n1CC(C)C` it was 183 to 184 °C; in that of `CC(C)C1COCc2nc3c(N)nc4cc(OCCN5CCOCC5)ccc4c3n21` (stereo not drawn), 194 to 195 °C. Next, `Cn1c(SCC(=O)NCCC[N+](C)([O-])Cc2ccc(Cl)c(Cl)c2)nc2ccccc21` (stereo not drawn): 106 to 110 °C.

With `COc1ccc(CNc2cc3c(Nc4ccc(Cl)c(Cl)c4)ncnc3cn2)cc1`, the melting point lay within 209 to 211 °C. `CC(CS)C(=O)N1CC(Oc2ccc(CC3Nc4cc(Cl)c(S(N)(=O)=O)cc4S(=O)(=O)N3C)cc2)CC1C(=O)O` (stereo not drawn) returned a melting point of 192 to 197 °C. Regarding `O=C(Nc1ccc(Oc2ccc(Cl)cc2)cc1)Nc1nonc1-c1ccccc1`, the melting point is 195 °C. In the case of `COc1cc(N)c2cc[nH]c2c1` it was 83 to 86 °C; in that of `CC(=O)N1CCCc2c(c3ccc(-n4ccc(-c5ccc(C(F)(F)F)nc5)cc4=O)cc3n2C)C1`, 156 to 162 °C. Next, `CC1=NCCc2c1n(-c1ccccc1)c1ccccc21`: 110 to 112 °C.

As a reminder, the melting point is the temperature of the solid-liquid transition.

The values above are taken from a melting point compilation (Tetko et al.; mined from patent text by program, amines drawn as free bases though some values may be those of a salt).
